This passage reports IC50, inhibition in vivo and Activity results from ChEMBL document CHEMBL1795221, “In vitro and in vivo anticancer activity evaluation of ursolic acid derivatives” (Eur J Med Chem, 2011).

The test system of one test is HeLa. Kind of test: cells. To be noted: Homo sapiens, 24 h.
The subject of test [1] is HepG2. Kind of test: cells. Particulars: Homo sapiens, HepG2, 24 h.
Description: Cytotoxicity against human HepG2 cells after 24 hrs by MTT assay
A short description of test [2]: Cytotoxicity against human HELF cells after 24 hrs by MTT assay. Format: cell-based. A general note: Formazan colour is commonly taken as a measure of viable cells.
The test system of test [3] is H22. Nature of the test: Antitumor activity against mouse H22 cells xenografted in kunming mouse assessed as inhibition of tumor growth at 150 mg/kg, ip for 7 days. Format: functional. Particulars: 168 h, route intraperitoneal.
The subject of the next test is SH-SY5Y. Kind of test: Cytotoxicity against human SH-SY5Y cells after 24 hrs by MTT assay. Format: functional, cell-based.
For test [4], the system named is BGC-823. Nature of the test: Cytotoxicity against human BGC823 cells after 24 hrs by MTT assay. Particulars: BGC-823, 24 h. Format: functional, cell-based.
Test [5] concerns H22. Kind of test: animal or person. To be noted: Mus musculus, H22, ip, 168 h, read-out: INH.
Description: Antitumor activity against mouse H22 cells xenografted in kunming mouse assessed as inhibition of tumor growth at 15 mg/kg, ip for 7 days
For test [6], the system named is HepG2. Kind of test: Cell cycle arrest in human HepG2 cells assessed as accumulation at G0/G1 phase at 10 uM after 24 hrs using propidium iodide staining by flow cytometric analysis (reference value: 57.03 %). Format: functional.
Test [7] has as its system HepG2. Nature of the test: Cell cycle arrest in human HepG2 cells assessed as accumulation at G2/M phase at 30 uM after 24 hrs using propidium iodide staining by flow cytometric analysis (reference value: 14.31 %). Format: functional. (In general: Flow cytometry measures light scatter and fluorescence of single cells or particles in a stream.)
The test system of test [8] is H22. Nature of the test: Antitumor activity against mouse H22 cells xenografted in kunming mouse assessed as inhibition of tumor growth at 100 mg/kg, ip for 7 days. Format: functional. To be noted: 168 h, route intraperitoneal.
Test [9] has as its system HepG2. Nature of the test: Cell cycle arrest in human HepG2 cells assessed as reduction at G2/M phase after 24 hrs using propidium iodide staining by flow cytometric analysis. Format: functional, cell-based.
The test system of test [10] is HepG2. Nature of the test: Cell cycle arrest in human HepG2 cells assessed as accumulation at S phase at 20 uM after 24 hrs using propidium iodide staining by flow cytometric analysis (reference value: 28.66 %). Format: functional.
For test [11], the system named is HepG2. Nature of the test: Cell cycle arrest in human HepG2 cells assessed as accumulation at G0/G1 phase after 24 hrs using propidium iodide staining by flow cytometric analysis. Format: functional, cell-based.
In test [12] the test system is BGC-823. Kind of test: Induction of apoptosis in human BGC823 cells assessed as increase in caspase-3 activity at 10 to 30 uM after 24 hrs by spectrophotometry. Format: functional, cell-based.
Test [13] deals with HepG2. Nature of the test: Cell cycle arrest in human HepG2 cells assessed as accumulation at S phase after 24 hrs using propidium iodide staining by flow cytometric analysis. Format: functional, cell-based.
In test [14] the test system is HepG2. Nature of the test: Induction of apoptosis in human HepG2 cells at 10 to 30 uM after 24 hrs using annexin V-EGFP/PI double staining by flow cytometry. Format: functional, cell-based.
Test [15] deals with HepG2. Nature of the test: Cell cycle arrest in human HepG2 cells assessed as accumulation at S phase at 10 uM after 24 hrs using propidium iodide staining by flow cytometric analysis (reference value: 28.66 %). Format: functional.
In test [16] the test system is H22. Nature of the test: Antitumor activity against mouse H22 cells xenografted in kunming mouse assessed as inhibition of tumor growth at 50 mg/kg, ip for 7 days. Format: functional. To be noted: 168 h, read-out: INH, route intraperitoneal.
For test [17], the system named is H22. Kind of test: Antitumor activity against mouse H22 cells xenografted in kunming mouse assessed as increase in body weight at 50 to 150 mg/kg, ip for 7 days. Format: functional, organism-based.
In test [18] the test system is HepG2. Nature of the test: Cell cycle arrest in human HepG2 cells assessed as accumulation at G0/G1 phase at 20 uM after 24 hrs using propidium iodide staining by flow cytometric analysis (reference value: 57.03 %). Format: functional.
Test [19] deals with HepG2. Kind of test: Cell cycle arrest in human HepG2 cells assessed as accumulation at G2/M phase at 10 uM after 24 hrs using propidium iodide staining by flow cytometric analysis (reference value: 14.31 %). Format: functional.
Test [20] deals with HepG2. Kind of test: Cell cycle arrest in human HepG2 cells assessed as accumulation at G0/G1 phase at 30 uM after 24 hrs using propidium iodide staining by flow cytometric analysis (reference value: 57.03 %). Format: functional.
Test [21] relates to HepG2. Kind of test: Cell cycle arrest in human HepG2 cells assessed as accumulation at G2/M phase at 20 uM after 24 hrs using propidium iodide staining by flow cytometric analysis (reference value: 14.31 %). Format: functional.
The test system of test [22] is HepG2. Nature of the test: Induction of apoptosis in human HepG2 cells assessed as increase in caspase-3 activity at 10 to 30 uM after 24 hrs by spectrophotometry. Format: functional, cell-based.
Test [23] relates to HepG2. Nature of the test: Cell cycle arrest in human HepG2 cells assessed as accumulation at S phase at 30 uM after 24 hrs using propidium iodide staining by flow cytometric analysis (reference value: 28.66 %). Format: functional.
Test [24] concerns HepG2. Kind of test: Induction of apoptosis in human HepG2 cells at 10 to 30 uM after 24 hrs using acridine orange staining by fluorescence microscopy. Format: functional, cell-based.

pIC50: −log10 of the molar value. Activity calls are given as the source filed them. No cut-off for these calls is given here.

Description for HeLa: Cytotoxicity against human HeLa cells after 24 hrs by MTT assay

One may read the pIC50 as the negative decadic logarithm of the IC50, by convention in mol/L. A lower pIC50 goes with a large IC50. For the compound `C[C@H]1[C@H](C)CC[C@]2(C(=O)O)CC[C@]3(C)C(=CC[C@@H]4[C@@]5(C)CC[C@H](O)C(C)(C)[C@@H]5CC[C@]43C)[C@H]12` [URSOLIC ACID], the pIC50 was 4.48 in the test on HeLa; 4.16 with HepG2 [1]; 4.67 in test [2]; 4.26 with SH-SY5Y; 4.18 with BGC-823 [4]. For the same compound, the inhibition in vivo at 150 mg/kg with H22 [3] turned out to be 36.2%.
As to `O=P1(N(CCCl)CCCl)NCCCO1` (configuration not stated) [CYCLOPHOSPHAMIDE ANHYDROUS], the inhibition in vivo at 15 mg/kg with H22 [5] was found to be 55%.
For `CC(=O)O[C@H]1CC[C@]2(C)[C@H]3CC=C4[C@@H]5[C@@H](C)[C@H](C)CC[C@]5(C(=O)N(CCO)CCO)CC[C@@]4(C)[C@]3(C)CC[C@H]2C1(C)C`, the Activity with HepG2 [6] was 55.89%; in the test with HepG2 [7] it was 6.9%; with HepG2 [9] it was “Dose-dependent effect”; with HepG2 [10], 37.43%; in the test with HepG2 [11], “Dose-dependent effect”; with BGC-823 [12], “Dose-dependent effect”. Further, the Activity result in the test on HepG2 [13] was “Dose-dependent effect”; in the test with HepG2 [14], “Dose-dependent effect”; with HepG2 [15] it was 32.13%; in the test on HepG2 [18], 52.91%; with HepG2 [19], 11.98%; in the test on HepG2 [20], 51.57%. Further, the values for the Activity in the test with HepG2 [21], with HepG2 [22] and in the test on HepG2 [23] were 9.66%, “Dose-dependent effect” and 41.53%, respectively. For the same compound, the inhibition in vivo at 100 mg/kg in the test with H22 [8] stood at 45.6%. For the same compound, the pIC50 in the test on HeLa was 4.96; in the test with HepG2 [1], 4.69; in [2], 4.42; in the test on SH-SY5Y it was 4.88; with BGC-823 [4] it was 4.81. Moreover, in the test on H22 [3], the inhibition in vivo at 150 mg/kg was determined as 43%. In addition, in the test on H22 [16], the inhibition in vivo at 50 mg/kg is 36.6%. Also, the result in the test on H22 [17] and in the test with HepG2 [24] was Active.
For the compound `CC(=O)O[C@H]1C(=O)[C@@]2(C)[C@H]([C@H](OC(=O)c3ccccc3)[C@]3(O)C[C@H](OC(=O)[C@H](O)[C@@H](NC(=O)c4ccccc4)c4ccccc4)C(C)=C1C3(C)C)[C@]1(OC(C)=O)CO[C@@H]1C[C@@H]2O` [PACLITAXEL], the pIC50 with HeLa was 5.18; in the test on HepG2 [1], 4.99; in test [2] it was 5.14; with SH-SY5Y it was 5.07; in the test with BGC-823 [4], 5.03.
With `C[C@H]1[C@H](C)CC[C@]2(C(=O)OCCCCO[N+](=O)[O-])CC[C@]3(C)C(=CC[C@@H]4[C@@]5(C)CC[C@H](O)C(C)(C)[C@@H]5CC[C@]43C)[C@H]12`, the pIC50 (with HeLa; in the test on HepG2 [1]; in [2]; in the test with SH-SY5Y; in the test on BGC-823 [4]) was < 4.00 each time.
Consider `C[C@H]1[C@H](C)CC[C@]2(C(=O)N3CCN(CCO)CC3)CC[C@]3(C)C(=CC[C@@H]4[C@@]5(C)CC[C@H](O)C(C)(C)[C@@H]5CC[C@]43C)[C@H]12`, for which the pIC50 in the test with HeLa is 4.28; in the test with HepG2 [1], < 4.00; in test [2], 4.48; in the test with SH-SY5Y it was < 4.00; in the test on BGC-823 [4], 4.01.
`CCOC(=O)[C@]12CC[C@@H](C)[C@H](C)[C@H]1C1=CC[C@@H]3[C@@]4(C)CC[C@H](OC(C)=O)C(C)(C)[C@@H]4CC[C@@]3(C)[C@]1(C)CC2`: the pIC50 (in the test on HeLa; with HepG2 [1]; in [2]; with SH-SY5Y; with BGC-823 [4]) was < 4.00 in each case.
